Legend:
hippocampal slice = experiment: Spontaneous interictal-like bursts in hippocampal slices with modified bathing medium; format: cell-based, rat
hippocampal tissue slice = experiment: Stimulation-evoked after discharge and intrinsic optical signals in hippocampal slices (Example 10); format: cell-based, rat
Method: Sprague-Dawley rats (male and female; 25 to 35 days old) were prepared as described in Aghajanian, A. K. and Rasmussen, K., Synapse 31:331, 1989; and Buckmaster, P. S., Strowbridge, B. W., Schwartzdroin, P. A., J. Neurophysiol. 70:1281, 1993. In most hippocampal slice experiments, simultaneous extracellular field electrode recordings were obtained from CA1 and CA3 areas. For stimulation-evoked after discharge (13 slices, 8 animals), the concentration of Mg^2+ in the bathing medium was reduced to 0.9 mM. A bipolar tungsten stimulating electrode was placed on the Schaffer collaterals to evoke synaptically driven field responses in CA1; stimuli consisted to 100 to 300-μs-duration pulses at an intensity of four times population-spike threshold. After discharges were evoked by a 2-[…] of such stimuli delivered at 60 Hz. […] In all treatments, perfusion with furosemide-containing medium was begun after a consistent level of bursting had been established.
For imaging of intrinsic optical signals, the tissue was illuminated with a beam of white light (tungsten filament light and lens system; Dedotec USA, Lodi, N.J.) directed through the microscope condenser. The light was controlled and regulated (power supply: Lambda Electronics, Melville, N.Y.) to minimize fluctuations and filtered (695 nm long-pass) so that the slice was transilluminated with long wavelengths (red). Image frames were acquired with a charge-coupled device camera (Dage-MTI) at 30 Hz and were digitized at 8 bits with a spatial resolution of 512 by 480 pixels by means of an Imaging Technology Series 151 imaging system; gains and offsets of the camera-control site and the analog-to-digital board were adjusted to optimize the sensitivity of the system. Imaging hardware was controlled by a 486-PC-compatible computer running software written by D. Hochman and developed with commercially available software tools (Microsoft's C/C++ Compiler and Imaging Technology's ITEX library). To increase signal-to-noise ratio, an averaged image was composed from 16 individual image-frames, integrated over 0.5 s and averaged together. An experimental series typically involved the continuous acquisition of a series of averaged images over a several minute time period; at least 10 of these averaged images were acquired as control images before stimulation. Pseudocolored images were calculated by subtracting the first control image from subsequently acquired images and assigned a color lookup table to the pixel values. For these images, usually a linear low-pass filter was used to remove high-frequency noise and a linear-histogram stretch was used to map the pixel values over the dynamic range of the system. All operations on these images were linear so that quantitative information was preserved.

[1] = system: low grade human CNS tumor; experiment: Optical imaging of dye perfusion in a low grade human CNS tumor (Example 3); format: in vivo
Method: This example illustrates the use of a contrast enhancing agent, indocyanine green, to identify and spatially localize a low grade human CNS tumor. An MRI scan was conducted before the operation. Additionally, the patient was investigated for tumor tissue using the apparatus described according to the invention and specifically described above.
The area of interest was evenly illuminated by a fiber optic light source with the radiation passing through a beam splitter, controlled by a D.C. regulated power supply (Lambda, Inc.) and passed through a 695 nm long pass filter. Images were acquired with a CCD camera (COHU 6500) fitted to the operating microscope with a specially modified cineadaptor. The cortex was stabilized with a glass footplate. Images were acquired at 30 Hz and digitized at 8 bits (512×480 pixels, using an Imaging Technology, Inc. Series 151 system, Woburn, Mass.). Geometrical transformations were applied to images to compensate for small amounts of patient motion (Wohlberg, Digital Imaging Warping, IEEE Computer Society: Los Alamitos, Calif., 1988). […] Raw data (i.e., no digital enhancement) were used for determining the average optical change in specified regions (average size site was 30×30 pixels or 150-250 um^2). For pseudocolor images, a linear low pass filter removed high frequency noise and linear histogram transformations were applied. Noise was defined as the standard deviation of fluctuations in sequentially acquired control images as 0.003-0.009.
An averaged control image was obtained of the particular cortical surface area of interest. Indocyanine green dye was administered into a peripheral intravenous catheter as a bolus at Time 0. Lettered labels were placed upon the brain by the surgeon overlay the tumor as identified intraoperatively by ultrasound. However, tumors of this type and grade are notoriously difficult to distinguish from normal tissue once the surgical removal of the tumor has begun. Difference images were taken approximately 15 seconds after intravenous injection of dye (indocyanine green at 1 mg/kg), and 30 seconds after dye administration. […] Therefore, it is possible to image even low grade tumors with this apparatus. Furthermore, it is possible to distinguish, intraoperatively, low grade tumor tissue from surrounding normal tissue.

[2] = system: malignant CNS tumor (glioblastoma; astrocytoma, Grade IV); experiment: Optical imaging of dye perfusion in a highly malignant CNS tumor (Example 4); format: in vivo, human
Excerpt: This example illustrates the image of a highly malignant CNS tumor (glioblastoma). A patient was imaged in a neurosurgical procedure as described in Example 1. A series of images were taken from the cortex of a patient with a malignant CNS tumor (glioblastoma; astrocytoma, Grade IV). […] A difference image was obtained at 15 seconds after intravenous injection of indocyanine green, showing the dynamics of dye perfusion in the first seconds in malignant tissue are […] to those in the first few seconds of benign tumor tissue. […] Therefore, it is possible with this device to identify malignant tumor tissue, distinguish intraoperatively between normal and malignant tumor tissue, and to distinguish between the various grades of tumor (e.g., normal vs. benign vs. malignant). Thus, it is possible to not only image the location of tumor tissue, but also to grade the tumor with more malignant tumors retaining dye for a longer period of time than a lower grade tumor.

glioma [3] = conditions: rat, in vivo
Excerpt: This example illustrates a series of experiments using a rat glioma model and optical detection techniques through an intact skull to investigate whether the inventive method and inventive device could function in to image tumor tissue through an intact skull and through intact skin prior to or after surgery. Far red wavelengths of emr are known to penetrate through bone and skin. Imaging of tumor tissue was attempted through the intact skull of the rat. The extent of tumor identified was not as accurate as with the cortex exposed, however, the area lying beneath the skull with tumor tissue was easily identified, localized and continued to concentrate dye after several minutes.
An image was taken for a grey-scale image of the cranial surface of a rat. The sagital suture runs down the center of the image. Tumor cells had been injected into the left side some days earlier so that this animal had developed a glioma on the left hemisphere of its brain. The right hemisphere was normal. A site 1 laid over the suspect region of brain tumor, and a site 2 laid over normal tissue. A difference image was acquired at 1 second after indocyanine green dye had been intravenously injected into the animal. The region containing tumor tissue becomes immediately visible through the intact cranium. […] A concentration of dye in the center of this difference image was observed and depicted dye circulating in the sagital sinus.
The optical changes were determined by the average optical change in a site placed directly over the tumor and over the normal hemisphere. The increase in absorption is a function of the concentration of dye in the tissue at a particular time. The graph labeled “extracranial tumor” is a plot of the dynamics of the absorption changes from the tumor area. The graph labeled “extracranial: normal” is a plot of the dynamics of the absorption change from the non-tumor area.

glioma [4] = system: glioma; set-up: species or system rat; conditions: in vivo
Excerpt: This example illustrates a series of experiments using a rat glioma model intraoperatively to investigate whether the inventive method and inventive device could function in an operating room setting to provide real time information to the surgeon regarding resection of all tumor tissue. The rat glioma model is a standard predictive model and was used to delineate dye uptake, clearance and overall parameters of optical imaging that result in the best images. The advantages of this model are the ability to consistently get reproducible tumors for imaging studies and to be able to rescect tumor under an operating microscope and still find residual tumor with the inventive optical imaging. A disadvantage of this model is the more sarcoma-like appearance of the tumor and a lesser degree of vascularity compared to human gliomas.
Briefly, the rat glioma model uses an ethylnitrosourea-induced F-344 rat tumor line developed from a clonal population of a spinal malignant astrocytoma. […] The glioma cells were maintained in Weymouth's medium supplemented with 10% fetal calf serum. Viable cells (5×10^4) were trypsinized from a monolayer culture and implanted stereotaxically into the right cerebral hemisphere of 30 syngeneic female rats, each weighing 140-160 g. The stereotaxic coordinates for right frontal lobe implantation were 4.5 mm anterior to the frontal zero plane, 3 mm right from the midline and 6 mm deep. The rats were anesthetized for implantation. The heads were shaved and scalps opened, and a 1 mm burr hole made at the appropriate coordinates. The cells were injected through a 27 gauge needle, the needle left in place for 30 sec post injection and the hole was covered with bone wax: The scalp was sutured and the animals observed for 3-4 hrs until they returned to normal activity and feeding. The animals were used !I 0-14 days after tumor implantation. In this model, animals begin to show clinical symptoms from the tumor by 16-19 days, such as decreased activity and feeding, hemiparesis and eventually succumb between 19-27 days from mass effects due to tumor expansion.
Fourteen animals underwent complete study, including imaging before and after resection of the tumor. For study, the animals were anesthetized with 2% isoflurane, and the femoral vein canulated for administration of the dye. Anesthesia was maintained with a chloralsoe (50 mg/kg administered ip) and urethane (160 mg/kg administered ip). The animals were placed in a stereotaxic holder. Imaging studies were then carried out before or after removal of the cranium. The tumor typically occupied the anterior one half to two thirds of the right hemisphere exposure. […]

[5] = 2.5 mM in medium, 20 minutes of perfusion, stimulation at 60 Hz

Nc1ccncc1 [4-AP]
spontaneous interictal-like bursts, average (hippocampal slice; 200 to 300 μM in bathing medium, 4 slices, 2 animals): 33 bursts/min

[K+] [K^+]
spontaneous interictal-like bursts, average (hippocampal slice; 10 mM in bathing medium, 6 slices, 4 animals): 81 bursts/min

CN1CCc2cc3c(cc2[C@H]1[C@@H]1OC(=O)c2c1ccc1c2OCO1)OCO3 [bicuculine]
spontaneous interictal-like bursts, average (hippocampal slice; 50 to 100 in bathing medium, 4 slices, 3 animals): 14 bursts/min

NS(=O)(=O)c1cc(C(=O)O)c(NCc2ccco2)cc1Cl [furosemide]
field response to the test pulse (hippocampal tissue slice; 2.5 mM in medium, 20 minutes of perfusion): hyperexcitable field response (multiple population spikes)
electrical after discharge (epileptiform) activity (hippocampal tissue slice; [5]): blocks
stimulation-evoked optical changes (intrinsic optical signal) (hippocampal tissue slice; [5]): blocks
response after washout (hippocampal tissue slice; 45 minutes of perfusion with normal bathing medium): restoration of the initial response pattern

CC1(C)C(/C=C/C=C/C=C/C=C2\N(CCCCS(=O)(=O)O)c3ccc4ccccc4c3C2(C)C)=[N+](CCCCS(=O)(=O)[O-])c2ccc3ccccc3c21 [indocyanine green]
tissue staining in difference images, tumor tissue ([1]; 1 mg/kg intravenous bolus, approximately 15 and 30 seconds after dye administration): first tissue staining
time at which all tissue (both normal and abnormal) showed staining ([1]; 1 mg/kg intravenous, low grade tumor): 45 s
clearance of dye from the area of interest ([1]; five minutes after dye administration, low grade tumor): complete clearance
entry into low grade tumor tissue compared to normal brain tissue ([1]; intravenous): faster than normal brain tissue
intensity in malignant tissue compared to normal tissue ([2]; 30 seconds after intravenous injection): even more intense
retention of dye in malignant tumor tissue compared to benign tumor tissue ([2]; 1 minute and 10 minutes after dye injection): retained significantly longer
plateau phase optical change, normal brain (glioma [3]; 60 seconds): 3.1±0.7%
plateau phase optical change, tumor tissue (glioma [3]; 60 seconds): 40.5±9.6%
peak optical change, normal brain imaged through the cranium (glioma [3]; iv): 7.8±2.3%
peak optical change, tumor imaged through the cranium (glioma [3]; iv): 13.1±3.9%
duration of prolonged increase in the optical signal in the tumor (glioma [4]; female, F-344, rat): > 2 min
time after dye injection at which optical signals began to change (glioma [4]; female, F-344, rat): 2 to 3 s
dye in tumor tissue versus normal tissue (glioma [4]; rat): still collecting in tumor tissue
dye in the cerebrospinal fluid after administration (glioma [4]; rat, iv): No dye was found
